In patent publication US9096591B2, “Tetracyclic compounds” (Medivation Technologies, Inc., priority 2007, dated 2015):

Each molecule was assayed against T1, human recombinant adrenergic α1D receptor (Homo sapiens, UniProt P25100) (assay: Adrenergic α1D radioligand binding ([3H]Prozosin)). Settings: compounds screened at 1 μM; read-out: Inhibition of ligand binding, Adren. alpha1D (percent inhibition of specific binding).
T1 construct: expressed in transfected cells; host or cells: HEK-293 cells
T1 sequence (P25100 1-572): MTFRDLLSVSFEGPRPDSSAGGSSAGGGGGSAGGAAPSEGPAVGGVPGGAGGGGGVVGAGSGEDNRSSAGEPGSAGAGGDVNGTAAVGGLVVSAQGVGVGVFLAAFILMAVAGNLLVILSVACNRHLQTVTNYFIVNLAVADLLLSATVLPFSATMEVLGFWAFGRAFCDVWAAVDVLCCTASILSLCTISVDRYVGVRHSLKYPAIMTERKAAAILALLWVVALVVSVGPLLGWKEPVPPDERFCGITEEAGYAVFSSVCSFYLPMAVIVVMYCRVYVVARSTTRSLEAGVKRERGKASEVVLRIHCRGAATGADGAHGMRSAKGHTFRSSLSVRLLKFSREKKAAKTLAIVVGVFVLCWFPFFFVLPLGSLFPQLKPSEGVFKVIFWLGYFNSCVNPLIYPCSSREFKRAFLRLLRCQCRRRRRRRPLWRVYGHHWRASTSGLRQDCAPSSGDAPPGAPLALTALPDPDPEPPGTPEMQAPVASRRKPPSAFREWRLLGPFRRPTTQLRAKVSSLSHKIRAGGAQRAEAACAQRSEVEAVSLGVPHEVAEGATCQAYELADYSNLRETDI
Set-up: Inhibition of ligand binding, Adren. alpha1D: concentration or dose not given beside the values
Experimental: Compounds of invention were incubated with 0.6 nM [^3H]Prozosin for 60 minutes at 25° C. Non-specific binding was estimated in the presence of 10 μM phentolamine. Receptor proteins were filtered and washed, the filters were then counted to determine [^3H]Prozosin specifically bound. […] Biochemical assay results are presented as the percent inhibition of specific binding in Table 6.

Structure (SMILES) | inhibition at 1 µM [%]
Cc1ccc2c(c1)c1c(n2CCc2nc(-c3ccccc3)cs2)CCN(C)C1 [Compound C1-5] | 92
COc1ccc2c(c1)c1c(n2CCc2nc(-c3ccccc3)cs2)CCN(C)C1 [Compound C1-6] | 72
CN1CCc2c(c3cc(F)ccc3n2CCc2nc(-c3ccccc3)cs2)C1 [Compound C1-7] | 66
CN1CCc2c(c3ccccc3n2CCc2noc(-c3ccccc3)n2)C1 [Compound C4-1] | 60
Cc1ccc2c(c1)c1c(n2CCc2noc(-c3ccccc3)n2)CCN(C)C1 [Compound C4-4] | 92
CN1CCc2c(c3cc(Cl)ccc3n2CCc2noc(-c3ccccc3)n2)C1 [Compound C4-6] | 84

Same assay, conditions: percent inhibition of specific binding

Structure (SMILES) | Inhibition of ligand binding, Adren. alpha1D [%]
Cc1ccc2c(c1)c1c(n2CCc2ccc(F)cc2)CCN(C)C1 [Compound 33, 5-(4-fluorophenethyl)-2,3,4,5-tetrahydro-2,8-dimethyl-1H-pyrido[4,3-b]indole] | 88
Cc1ccc2c(c1)c1c(n2CCc2ccccc2F)CCN(C)C1 [Compound 34, 5-(2-fluorophenethyl)-2,3,4,5-tetrahydro-2,8-dimethyl-1H-pyrido[4,3-b]indole] | 76
CN1CCc2c(c3cc(Cl)ccc3n2CCc2ccccc2)C1 [Compound 36, 8-chloro-2,3,4,5-tetrahydro-2-methyl-5-phenethyl-1H-pyrido[4,3-b]indole] | 87
Cc1ccc2c(c1)c1c(n2CCC2CCCCC2)CCN(C)C1 [Compound 163, 5-(2-cyclohexylethyl)-2,3,4,5-tetrahydro-2,8-dimethyl-1H-pyrido[4,3-b]indole] | 49

These molecules were tested against T2, human recombinant histamine H2 receptor (Homo sapiens, UniProt P25021) (assay: Histamine H2 radioligand binding ([125I]Aminopotentidine)). Settings: 0.1 μM compound; 0.1 nM [125I]Aminopotentidine; read-out: Histamine Binding H2, percent inhibition of specific binding.
T2 construct: expressed in transfected cells; host or cells: CHO-K1 cells
T2 sequence (P25021 whole entry): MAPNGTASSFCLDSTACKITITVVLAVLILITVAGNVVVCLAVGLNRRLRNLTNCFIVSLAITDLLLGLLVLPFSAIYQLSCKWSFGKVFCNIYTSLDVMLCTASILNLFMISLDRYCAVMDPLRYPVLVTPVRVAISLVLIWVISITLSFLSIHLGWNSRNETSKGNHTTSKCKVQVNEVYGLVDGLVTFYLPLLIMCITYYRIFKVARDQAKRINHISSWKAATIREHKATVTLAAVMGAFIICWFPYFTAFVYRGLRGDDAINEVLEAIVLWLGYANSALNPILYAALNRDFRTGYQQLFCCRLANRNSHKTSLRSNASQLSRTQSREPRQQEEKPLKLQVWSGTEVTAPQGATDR
Method in brief: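 Test compounds were assessed for their ability to displace radioligand from the human recombinant histamine H2 receptor. Non-specific binding was determined in the presence of 3 μM Tiotidine, and results were expressed as percent inhibition of specific binding, with 1% DMSO serving as the vehicle.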

Structure (SMILES) | inhibition at 0.1 µM [%]
Cc1ccc2c(c1)c1c(n2CCc2ccc(F)cc2)CCN(C)C1 [Compound 33, 5-(4-fluorophenethyl)-2,3,4,5-tetrahydro-2,8-dimethyl-1H-pyrido[4,3-b]indole] | 41
CN1CCc2c(c3cc(Cl)ccc3n2CCc2ccccc2)C1 [Compound 36, 8-chloro-2,3,4,5-tetrahydro-2-methyl-5-phenethyl-1H-pyrido[4,3-b]indole] | 41

Same assay, conditions: 1 μM compound; 0.1 nM [125I]Aminopotentidine; read-out: Histamine Binding H2, percent inhibition of specific binding

Structure (SMILES) | inhibition at 1 µM [%]
Cc1ccc2c(c1)c1c(n2CCc2ccc(F)cc2)CCN(C)C1 [Compound 33, 5-(4-fluorophenethyl)-2,3,4,5-tetrahydro-2,8-dimethyl-1H-pyrido[4,3-b]indole] | 91
Cc1ccc2c(c1)c1c(n2CCc2ccccc2F)CCN(C)C1 [Compound 34, 5-(2-fluorophenethyl)-2,3,4,5-tetrahydro-2,8-dimethyl-1H-pyrido[4,3-b]indole] | 89
CN1CCc2c(c3cc(Cl)ccc3n2CCc2ccccc2)C1 [Compound 36, 8-chloro-2,3,4,5-tetrahydro-2-methyl-5-phenethyl-1H-pyrido[4,3-b]indole] | 92
Cc1ccc2c(c1)c1c(n2CCC2CCCCC2)CCN(C)C1 [Compound 163, 5-(2-cyclohexylethyl)-2,3,4,5-tetrahydro-2,8-dimethyl-1H-pyrido[4,3-b]indole] | 88

Same assay, conditions: compounds screened at 1 μM; read-out: Inhibition of ligand binding, Hist. H2 (percent inhibition of specific binding)

Structure (SMILES) | inhibition at 1 µM [%]
Cc1ccc2c(c1)c1c(n2CCc2nc(-c3ccccc3)cs2)CCN(C)C1 [Compound C1-5] | 73
COc1ccc2c(c1)c1c(n2CCc2nc(-c3ccccc3)cs2)CCN(C)C1 [Compound C1-6] | 21
CN1CCc2c(c3cc(F)ccc3n2CCc2nc(-c3ccccc3)cs2)C1 [Compound C1-7] | 55
CN1CCc2c(c3ccccc3n2CCc2noc(-c3ccccc3)n2)C1 [Compound C4-1] | 47
Cc1ccc2c(c1)c1c(n2CCc2noc(-c3ccccc3)n2)CCN(C)C1 [Compound C4-4] | 68
CN1CCc2c(c3cc(Cl)ccc3n2CCc2noc(-c3ccccc3)n2)C1 [Compound C4-6] | 68

Same assay, conditions: percent inhibition of specific binding; screened at 1 μM; read-out: Inhibition of ligand binding, Hist. H2

Structure (SMILES) | inhibition at 1 µM [%]
Cc1ccc2c(c1)c1c(n2CCc2ccc(F)cc2)CCN(C)C1 [Compound 33, 5-(4-fluorophenethyl)-2,3,4,5-tetrahydro-2,8-dimethyl-1H-pyrido[4,3-b]indole] | 91
Cc1ccc2c(c1)c1c(n2CCc2ccccc2F)CCN(C)C1 [Compound 34, 5-(2-fluorophenethyl)-2,3,4,5-tetrahydro-2,8-dimethyl-1H-pyrido[4,3-b]indole] | 89
CN1CCc2c(c3cc(Cl)ccc3n2CCc2ccccc2)C1 [Compound 36, 8-chloro-2,3,4,5-tetrahydro-2-methyl-5-phenethyl-1H-pyrido[4,3-b]indole] | 92
Cc1ccc2c(c1)c1c(n2CCC2CCCCC2)CCN(C)C1 [Compound 163, 5-(2-cyclohexylethyl)-2,3,4,5-tetrahydro-2,8-dimethyl-1H-pyrido[4,3-b]indole] | 88

What follows are molecules tested against T3, Serotonin (5-Hydroxytryptamine) 5-HT7 (Homo sapiens, UniProt P34969) (assay: Serotonin 5-HT7 radioligand binding ([3H]LSD)). Settings: compounds screened at 1 μM; read-out: Inhibition of ligand binding, Ser. 5-HT7 (percent inhibition of specific binding).
T3 construct: expressed in transfected cells; host or cells: CHO cells
T3 sequence (P34969 whole entry): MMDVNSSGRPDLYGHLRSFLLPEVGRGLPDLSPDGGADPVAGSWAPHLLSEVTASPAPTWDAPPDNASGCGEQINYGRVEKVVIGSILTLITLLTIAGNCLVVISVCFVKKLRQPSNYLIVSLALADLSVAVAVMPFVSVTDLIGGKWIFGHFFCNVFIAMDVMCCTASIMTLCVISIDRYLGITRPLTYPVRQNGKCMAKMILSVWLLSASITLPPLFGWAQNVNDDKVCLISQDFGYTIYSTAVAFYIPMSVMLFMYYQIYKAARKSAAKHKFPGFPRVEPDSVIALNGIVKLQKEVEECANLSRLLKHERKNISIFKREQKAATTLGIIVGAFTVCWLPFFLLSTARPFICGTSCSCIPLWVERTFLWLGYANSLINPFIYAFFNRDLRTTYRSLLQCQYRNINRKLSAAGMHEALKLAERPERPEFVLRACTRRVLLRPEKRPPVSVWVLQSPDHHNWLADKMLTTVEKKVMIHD
Set-up: Inhibition of ligand binding, Ser. 5-HT7: concentration or dose not given beside the values
Experimental: Lysergic acid diethylamide (LSD) for 2 hours at 25° C. […] Receptor proteins were filtered and washed, the filters were then counted to determine [^3H]LSD specifically bound. […] Biochemical assay results are presented as the percent inhibition of specific binding in Table 6.

Structure (SMILES) | inhibition at 1 µM [%]
Cc1ccc2c(c1)c1c(n2CCc2nc(-c3ccccc3)cs2)CCN(C)C1 [Compound C1-5] | 93
COc1ccc2c(c1)c1c(n2CCc2nc(-c3ccccc3)cs2)CCN(C)C1 [Compound C1-6] | 57
CN1CCc2c(c3cc(F)ccc3n2CCc2nc(-c3ccccc3)cs2)C1 [Compound C1-7] | 90
CN1CCc2c(c3ccccc3n2CCc2noc(-c3ccccc3)n2)C1 [Compound C4-1] | 88
Cc1ccc2c(c1)c1c(n2CCc2noc(-c3ccccc3)n2)CCN(C)C1 [Compound C4-4] | 96
CN1CCc2c(c3cc(Cl)ccc3n2CCc2noc(-c3ccccc3)n2)C1 [Compound C4-6] | 90

Same assay, conditions: percent inhibition of specific binding

Structure (SMILES) | Inhibition of ligand binding, Ser. 5-HT7 [%]
Cc1ccc2c(c1)c1c(n2CCc2ccc(F)cc2)CCN(C)C1 [Compound 33, 5-(4-fluorophenethyl)-2,3,4,5-tetrahydro-2,8-dimethyl-1H-pyrido[4,3-b]indole] | 91
Cc1ccc2c(c1)c1c(n2CCc2ccccc2F)CCN(C)C1 [Compound 34, 5-(2-fluorophenethyl)-2,3,4,5-tetrahydro-2,8-dimethyl-1H-pyrido[4,3-b]indole] | 97
CN1CCc2c(c3cc(Cl)ccc3n2CCc2ccccc2)C1 [Compound 36, 8-chloro-2,3,4,5-tetrahydro-2-methyl-5-phenethyl-1H-pyrido[4,3-b]indole] | 99
Cc1ccc2c(c1)c1c(n2CCC2CCCCC2)CCN(C)C1 [Compound 163, 5-(2-cyclohexylethyl)-2,3,4,5-tetrahydro-2,8-dimethyl-1H-pyrido[4,3-b]indole] | 95

What follows are molecules tested against T4, human recombinant adrenergic α2A receptor (Homo sapiens, UniProt P08913) (assay: Adrenergic α2A radioligand binding ([3H]MK-912)). Settings: compounds screened at 1 μM; read-out: Inhibition of ligand binding, Adren. alpha2A (percent inhibition of specific binding).
T4 construct: expressed in transfected cells; host or cells: insect Sf9 cells
T4 sequence (P08913 1-465): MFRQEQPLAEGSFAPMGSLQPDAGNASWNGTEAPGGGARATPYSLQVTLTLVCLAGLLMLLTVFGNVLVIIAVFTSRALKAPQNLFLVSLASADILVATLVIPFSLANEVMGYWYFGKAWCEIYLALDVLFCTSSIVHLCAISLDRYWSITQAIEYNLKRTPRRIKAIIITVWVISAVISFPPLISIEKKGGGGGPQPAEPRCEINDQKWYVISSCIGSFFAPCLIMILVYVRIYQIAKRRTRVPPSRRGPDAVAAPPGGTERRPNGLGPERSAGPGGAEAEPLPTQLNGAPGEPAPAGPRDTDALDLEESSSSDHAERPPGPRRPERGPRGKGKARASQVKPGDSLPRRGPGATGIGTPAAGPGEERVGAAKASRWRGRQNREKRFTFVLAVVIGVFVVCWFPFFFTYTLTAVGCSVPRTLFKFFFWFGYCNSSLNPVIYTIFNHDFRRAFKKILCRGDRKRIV
Set-up: Inhibition of ligand binding, Adren. alpha2A: concentration or dose not given beside the values
Method in brief: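 Membranes from Sf9 cells expressing the receptor were incubated with 1 nM [3H]MK-912 for 60 minutes at 25° C in 50 mM Tris-HCl pH 7.4, 12.5 mM MgCl2, 2 mM EDTA. 10 μM WB-4101 defined non-specific binding. Values are percent inhibition of specific bound radioactivity after filtration.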

Structure (SMILES) | inhibition at 1 µM [%]
Cc1ccc2c(c1)c1c(n2CCc2nc(-c3ccccc3)cs2)CCN(C)C1 [Compound C1-5] | 92
COc1ccc2c(c1)c1c(n2CCc2nc(-c3ccccc3)cs2)CCN(C)C1 [Compound C1-6] | 55
CN1CCc2c(c3cc(F)ccc3n2CCc2nc(-c3ccccc3)cs2)C1 [Compound C1-7] | 88
CN1CCc2c(c3ccccc3n2CCc2noc(-c3ccccc3)n2)C1 [Compound C4-1] | 95
Cc1ccc2c(c1)c1c(n2CCc2noc(-c3ccccc3)n2)CCN(C)C1 [Compound C4-4] | 96
CN1CCc2c(c3cc(Cl)ccc3n2CCc2noc(-c3ccccc3)n2)C1 [Compound C4-6] | 96

Same assay, conditions: percent inhibition of specific binding

Structure (SMILES) | Inhibition of ligand binding, Adren. alpha2A [%]
Cc1ccc2c(c1)c1c(n2CCc2ccc(F)cc2)CCN(C)C1 [Compound 33, 5-(4-fluorophenethyl)-2,3,4,5-tetrahydro-2,8-dimethyl-1H-pyrido[4,3-b]indole] | 98
Cc1ccc2c(c1)c1c(n2CCc2ccccc2F)CCN(C)C1 [Compound 34, 5-(2-fluorophenethyl)-2,3,4,5-tetrahydro-2,8-dimethyl-1H-pyrido[4,3-b]indole] | 99
CN1CCc2c(c3cc(Cl)ccc3n2CCc2ccccc2)C1 [Compound 36, 8-chloro-2,3,4,5-tetrahydro-2-methyl-5-phenethyl-1H-pyrido[4,3-b]indole] | 97
Cc1ccc2c(c1)c1c(n2CCC2CCCCC2)CCN(C)C1 [Compound 163, 5-(2-cyclohexylethyl)-2,3,4,5-tetrahydro-2,8-dimethyl-1H-pyrido[4,3-b]indole] | 93

The molecules below were run against T5, human recombinant dopamine D2L receptor (Homo sapiens, UniProt P14416) (assay: Dopamine D2L radioligand binding ([3H]Spiperone)). Settings: compounds screened at 1 μM; read-out: Inhibition of ligand binding, Dop. D2L (percent inhibition of specific binding).
T5 construct: expressed in transfected cells; host or cells: CHO cells
T5 sequence (P14416 whole entry): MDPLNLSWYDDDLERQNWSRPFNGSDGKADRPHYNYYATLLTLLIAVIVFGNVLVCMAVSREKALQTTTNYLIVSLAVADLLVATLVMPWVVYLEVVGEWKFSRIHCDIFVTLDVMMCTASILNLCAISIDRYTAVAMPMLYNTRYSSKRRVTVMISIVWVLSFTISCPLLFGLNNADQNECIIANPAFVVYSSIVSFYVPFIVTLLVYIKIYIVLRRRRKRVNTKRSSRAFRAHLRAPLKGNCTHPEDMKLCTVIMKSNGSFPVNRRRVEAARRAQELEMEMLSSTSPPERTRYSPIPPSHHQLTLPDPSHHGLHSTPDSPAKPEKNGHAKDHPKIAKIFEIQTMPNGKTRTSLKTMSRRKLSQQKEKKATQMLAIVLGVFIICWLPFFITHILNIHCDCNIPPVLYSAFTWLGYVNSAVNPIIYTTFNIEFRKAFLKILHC
Experimental: Non-specific binding was estimated in the presence of 10 μM Haloperidol. Receptor proteins were filtered and washed, the filters were then counted to determine [^3H]Spiperone specifically bound. […] Biochemical assay results are presented as the percent inhibition of specific binding in Table 6.

Structure (SMILES) | inhibition at 1 µM [%]
Cc1ccc2c(c1)c1c(n2CCc2nc(-c3ccccc3)cs2)CCN(C)C1 [Compound C1-5] | 36
COc1ccc2c(c1)c1c(n2CCc2nc(-c3ccccc3)cs2)CCN(C)C1 [Compound C1-6] | 29
CN1CCc2c(c3cc(F)ccc3n2CCc2nc(-c3ccccc3)cs2)C1 [Compound C1-7] | 25
CN1CCc2c(c3ccccc3n2CCc2noc(-c3ccccc3)n2)C1 [Compound C4-1] | 14
Cc1ccc2c(c1)c1c(n2CCc2noc(-c3ccccc3)n2)CCN(C)C1 [Compound C4-4] | 46
CN1CCc2c(c3cc(Cl)ccc3n2CCc2noc(-c3ccccc3)n2)C1 [Compound C4-6] | 36

Same assay, conditions: percent inhibition of specific binding

Structure (SMILES) | Inhibition of ligand binding, Dop. D2L [%]
Cc1ccc2c(c1)c1c(n2CCc2ccc(F)cc2)CCN(C)C1 [Compound 33, 5-(4-fluorophenethyl)-2,3,4,5-tetrahydro-2,8-dimethyl-1H-pyrido[4,3-b]indole] | 88
Cc1ccc2c(c1)c1c(n2CCc2ccccc2F)CCN(C)C1 [Compound 34, 5-(2-fluorophenethyl)-2,3,4,5-tetrahydro-2,8-dimethyl-1H-pyrido[4,3-b]indole] | 88
CN1CCc2c(c3cc(Cl)ccc3n2CCc2ccccc2)C1 [Compound 36, 8-chloro-2,3,4,5-tetrahydro-2-methyl-5-phenethyl-1H-pyrido[4,3-b]indole] | 92
Cc1ccc2c(c1)c1c(n2CCC2CCCCC2)CCN(C)C1 [Compound 163, 5-(2-cyclohexylethyl)-2,3,4,5-tetrahydro-2,8-dimethyl-1H-pyrido[4,3-b]indole] | 36
